Biological target: T1, GRK5 (Homo sapiens, UniProt P34947)
T1 construct: purchased Thermo Fisher Scientific (Life Technologies) SelectScreen
Test: SelectScreen Z'LYTE
Format: biochemical
Summary of the method: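 SelectScreen broad panel; activity (Z'LYTE, Adapta) plus binding formats. ATP: Km app for CSF1R Z'LYTE; 10 for CAMK1 Adapta. Readout = % per kinase.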

T1 sequence (P34947 whole entry): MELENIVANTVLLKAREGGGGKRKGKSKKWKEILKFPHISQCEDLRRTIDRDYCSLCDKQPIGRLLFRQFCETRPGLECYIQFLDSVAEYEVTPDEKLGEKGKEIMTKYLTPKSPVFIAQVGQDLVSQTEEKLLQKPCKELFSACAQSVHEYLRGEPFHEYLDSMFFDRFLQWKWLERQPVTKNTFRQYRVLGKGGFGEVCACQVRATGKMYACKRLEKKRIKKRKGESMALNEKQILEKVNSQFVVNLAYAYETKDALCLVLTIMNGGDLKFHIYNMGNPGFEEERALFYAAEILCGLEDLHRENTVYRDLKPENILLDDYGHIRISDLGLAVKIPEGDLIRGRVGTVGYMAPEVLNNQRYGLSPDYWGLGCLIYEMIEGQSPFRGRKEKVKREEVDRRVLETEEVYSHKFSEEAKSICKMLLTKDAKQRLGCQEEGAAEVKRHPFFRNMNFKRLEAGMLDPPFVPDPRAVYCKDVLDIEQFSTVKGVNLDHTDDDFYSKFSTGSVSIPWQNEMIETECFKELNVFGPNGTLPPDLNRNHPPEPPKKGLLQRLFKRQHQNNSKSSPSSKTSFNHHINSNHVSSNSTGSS

Question: With `CN(C(=O)CN1CCOCC1)c1ccc2sc3c(-c4cccc5c(=O)cc(N6CC7CCC(C6)O7)oc45)cccc3c2c1` [NU5455] as the compound, how does the inhibition at 1 µM read?
Answer: The inhibition at 1 µM was -3.2%.

From PMC6934184, “Selective DNA-PKcs inhibition extends the therapeutic index of localized radiotherapy and chemotherapy” (The Journal of Clinical Investigation, 2019)
